Measurements published in patent US20150105252A1, “SUBSTITUTED PYRAZOLES AS HERBICIDES” (E I DU PONT DE NEMOURS AND COMPANY, priority 2013, published 2015).

Key:
[1] = test system: velvetleaf; experiment: Test C postemergence; type: in vivo, Abutilon theophrasti
In short: (§1)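 Visual rating, 0–100 scale (0 no effect, 100 complete control), vs untreated controls after 13–15 d greenhouse. Pre: seeds in loam/sand, treated at sowing. Post: plants in peat-based mix, 1- to 4-leaf (2–18 cm). Solvent + surfactant formulation, non-phytotoxic.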

[2] = test system: nutsedge, yellow; experiment: Test C preemergence; type: in vivo, Cyperus esculentus
In short: as §1

[3] = test system: crabgrass, large; experiment: Test A preemergence; type: in vivo, Digitaria sanguinalis; settings: preemergence
In short: (§2)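 Visual injury ratings, 0 = no effect to 100 = complete control, taken about 10 days after treatment against untreated controls. Test chemicals, in a non-phytotoxic surfactant-containing solvent, were sprayed onto soil preemergence or onto one- to two-leaf plants (2–10 cm) postemergence, in loam–sand soil under greenhouse conditions.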

[4] = test system: barnyardgrass; experiment: Test C preemergence; type: in vivo, Echinochloa crus-galli
In short: as §1

[5] = test system: lambsquarters; experiment: Test C preemergence; type: in vivo, Chenopodium album
In short: as §1

[6] = test system: corn; experiment: Test C postemergence; type: in vivo, Zea mays
In short: as §1

[7] = test system: rice; experiment: Test B flood; type: in vivo, Oryza sativa; settings: 250 g ai/ha, visual rating on 0 to 100 scale (0 no effect, 100 complete control), 13 to 15 days
In short: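 Two-leaf-stage plants, pots flooded (3 cm above soil) and treated through the water, which stayed at that depth. After 13–15 days in greenhouse conditions, visual assessment versus controls: 0 is no effect, 100 complete control, dash means no result.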

[8] = test system: crabgrass, large; experiment: Test C postemergence; type: in vivo, Digitaria sanguinalis
In short: as §1

[9] = test system: waterhemp; experiment: Test C preemergence; type: in vivo, Amaranthus rudis
In short: as §1

[10] = test system: velvetleaf; experiment: Test A preemergence; type: in vivo, Abutilon theophrasti; settings: preemergence
In short: as §2

[11] = test system: morningglory; experiment: Test A postemergence; type: in vivo, Ipomoea spp.
In short: as §2

[12] = test system: galium; experiment: Test C postemergence; type: in vivo, Galium aparine
In short: as §1

[13] = test system: foxtail, giant; experiment: Test A preemergence; type: in vivo, Setaria faberii; settings: preemergence
In short: as §2

[14] = test system: foxtail, giant; experiment: Test A postemergence; type: in vivo, Setaria faberii
In short: as §2

[15] = Postemergence, 31 g ai/ha, visually evaluated after 13 to 15 days
[16] = postemergence, 62 g ai/ha, scale 0 to 100
[17] = postemergence, 250 g ai/ha, scale 0 to 100 (0 no effect, 100 complete control)
[18] = postemergence, 125 g ai/ha, scale 0 to 100, 0 no effect, 100 complete control
[19] = preemergence, 31 g ai/ha, visual rating, scale 0 to 100 (0 no effect, 100 complete control), 13 to 15 days
[20] = preemergence, 62 g ai/ha, 13 to 15 days, scale 0 to 100, 0 = no effect, 100 = complete control
[21] = preemergence, 125 g ai/ha, scale 0 to 100, 0 is no effect, 100 is complete control
[22] = 125 g ai/ha, visual injury, 0 to 100 scale, approx. 10 days
[23] = 500 g ai/ha, visual injury after approx. 10 days, 0 to 100 scale (0 no effect, 100 complete control)
[24] = Postemergence, 500 g ai/ha, visual rating after approx. 10 days, 0 to 100 scale (0 no effect, 100 complete control)
[25] = postemergence, 125 g ai/ha, about 10 days, visual rating on 0 to 100 scale (0 no effect, 100 complete control)

For `CCOc1cc(C(=O)NCC(F)(F)F)nn1Cc1ccnc(C(F)(F)F)c1` [Compound 104], the “Plant response rating (scale of 0 to 100 where 0 is no effect and 100 is complete control), Velvetleaf” value [1, 15] was 25, the “Velvetleaf plant response rating” value [1, 16] was 40 and the “Plant response rating, Velvetleaf” value [1, 17] was 80. The “Plant response rating, Velvetleaf” value [1, 18] was 65, the “Plant response rating (scale of 0 to 100), Nutsedge, Yellow” value ([2]; Preemergence, 250 g ai/ha) was 98 and the “Nutsedge, Yellow plant response rating” value [2, 19] was 70. For the same molecule, the “Plant response rating, Nutsedge, Yellow” value [2, 20] was 95, the “Nutsedge, Yellow plant response rating” value [2, 21] was 98 and the “Crabgrass, Large plant response rating” value [3, 22] was 100. For the same molecule, the “Crabgrass, Large plant response rating” value [3, 23] was 100, the “Plant response rating (scale of 0 to 100), Barnyardgrass” value ([4]; Preemergence, 250 g ai/ha) was 100 and the “Barnyardgrass plant response rating” value ([4]; preemergence, 31 g ai/ha, scale 0 to 100 (0 no effect, 100 complete control), 13 to 15 days) was 100. For the same molecule, the “Plant response rating, Barnyardgrass” value [4, 20] was 100, the “Barnyardgrass plant response rating” value [4, 21] was 100 and the “Plant response rating (scale of 0 to 100), Lambsquarters” value ([5]; Preemergence, 250 g ai/ha) was 100. The “Lambsquarters plant response rating” value [5, 19] was 98, the “Plant response rating, Lambsquarters” value [5, 20] was 98 and the “Lambsquarters plant response rating” value [5, 21] was 100. The “Plant response rating (scale of 0 to 100 where 0 is no effect and 100 is complete control), Corn” value [6, 15] was 5, the “Corn plant response rating” value [6, 16] was 35 and the “Plant response rating, Corn” value [6, 17] was 95. For the same molecule, the “Plant response rating, Corn” value [6, 18] was 35, the “Plant response rating, Rice” value [7] was 40 and the “Plant response rating (scale of 0 to 100 where 0 is no effect and 100 is complete control), Crabgrass, Large” value [8, 15] was 5. For the same molecule, the “Crabgrass, Large plant response rating” value [8, 16] was 70, the “Plant response rating, Crabgrass, Large” value [8, 17] was 95 and the “Plant response rating, Crabgrass, Large” value [8, 18] was 75. The “Plant response rating (scale of 0 to 100), Waterhemp” value ([9]; Preemergence, 250 g ai/ha) was 100, the “Waterhemp plant response rating” value [9, 19] was 100 and the “Plant response rating, Waterhemp” value [9, 20] was 100. For the same molecule, the “Waterhemp plant response rating” value [9, 21] was 100, the “Velvetleaf plant response rating” value [10, 22] was 100 and the “Velvetleaf plant response rating” value [10, 23] was 100. For the same molecule, the “Morningglory plant response rating” value [11, 24] was 100, the “Morningglory plant response rating” value [11, 25] was 100 and the “Plant response rating (scale of 0 to 100 where 0 is no effect and 100 is complete control), Galium” value [12, 15] was 60. For the same molecule, the “Galium plant response rating” value [12, 16] was 60, the “Plant response rating, Galium” value [12, 17] was 85 and the “Plant response rating, Galium” value [12, 18] was 85. The “Foxtail, Giant plant response rating” value [13, 22] was 100, the “Foxtail, Giant plant response rating” value [13, 23] was 100 and the “Foxtail, Giant plant response rating” value [14, 24] was 90. The “Foxtail, Giant plant response rating” value [14, 25] was 90.
